Key:
[1] = system: normal physiological nociception; assay: normal physiological nociception; assay type: in vivo; conditions: after administration of spongosine
[2] = blood pressure and heart rate by implantable radiotelemetry; assay type: in vivo, rat; conditions: 0.624 mg/kg p.o., normal rats
Source text: An implantable radiotelemetry device was placed in the abdominal cavity of 6 rats per group. The pressure catheter of the device was inserted in the abdominal aorta and two electrodes tunnelised under the skin in a lead II position (left side of abdominal cavity/right shoulder). Individual rats were placed in their own cage on a radioreceptor (DSI) for data acquisition. A: blood pressure, B; heart rate.

[3] = system: thermal hyperalgesia caused by chronic constriction injury; assay: thermal hyperalgesia caused by chronic constriction injury of the rat sciatic nerve; assay type: in vivo
Source text: After approximately two weeks the rats developed thermal hyperalgesia in the operated leg as judged by the difference in paw withdrawal latencies of the right and left paws.

static allodynia = static allodynia in a model of neuropathic pain; assay type: in vivo
Method: Spongosine and gabapentin were administered (p.o.) in different proportions as indicated in the drawing. The total dose administered is shown on the horizontal axis, and the paw withdrawal threshold (PWT) on the vertical axis. The predicted anti-hyperalgesic effect (derived from the dose response curves obtained with each agent alone) if the effects of the two compounds are additive is shown (●). The observed effects are indicated by (▪).

[4] = system: carrageenan-induced oedema; conditions: rats; inhibition of carrageenan-induced oedema in a rat paw; cited from earlier work
[5] = rats; cited from earlier work
[6] = system: carrageenan (CGN) induced thermal hyperalgesia; assay: carrageenan induced thermal hyperalgesia (CITH); assay type: in vivo
Method: Carrageenan (2%, 10 microliters) was administered into the right hind paw. A heat source was placed close to the treated and untreated hind paws, and the difference in the paw withdrawal latencies is shown. Spongosine was administered at the same time as carrageenan.

SMILES | analgesic effect on normal physiological nociception [1] | effect on blood pressure [2] | effect on heart rate [2] | inhibition of thermal hyperalgesia (difference in paw withdrawal latencies) ([3]; 0.624 mg/kg p.o., rat, about two weeks after sciatic nerve ligation) | efficacy relative to carbamazepine ([3]; spongosine 0.624 mg/kg p.o. versus carbamazepine 100 mg/kg s.c.) | inhibition of static allodynia (paw withdrawal threshold, PWT) (static allodynia; 1.2 mg/kg p.o., absence of naloxone) | inhibition of static allodynia (paw withdrawal threshold, PWT) (static allodynia; 1.2 mg/kg p.o., presence of naloxone 1 mg/kg s.c.) | inhibition of static allodynia (paw withdrawal threshold, PWT) (static allodynia; p.o., dose response, Example 5) | anti-inflammatory activity [4] | hypotensive activity [5] | hypothermic activity [5] | muscle relaxant activity [5] | inhibition of carrageenan induced thermal hyperalgesia (difference in paw withdrawal latencies) ([6]; 0.624 mg/kg p.o., given at the same time as carrageenan (2%, 10 microliters, right hind paw)) | efficacy relative to indomethacin ([6]; spongosine 0.624 mg/kg p.o. versus indomethacin 3 mg/kg po)
COc1nc(N)c2ncn([C@@H]3O[C@H](CO)[C@@H](O)[C@H]3O)c2n1 [Spongosine, 2-methoxyadenosine] | No analgesic effect | no significant effect | no significant effect | inhibits | as, or more, effective | inhibits | inhibits | inhibit | anti-inflammatory activity | hypotensive | hypothermic | muscle relaxant | inhibits | comparable efficacy
NCC1(CC(=O)O)CCCCC1 [gabapentin, reference compound] | – | – | – | – | – | – | – | inhibit | – | – | – | – | – | –

Reference: patent US8252766B2 (CBT Development Limited, priority 2002, dated 2012)
